Test results published in patent US20230003717A1, “USE OF SYNAPTOTAGMIN-7 IN THE DIAGNOSIS AND TREATMENT OF BIPOLAR DISORDER” (TSINGHUA UNIVERSITY, priority 2020, published 2023).

Experiments:
Format in all cases: in vivo
[1] = test system: Syt7 KO mice; test: forced swim test (FST), Syt7 KO mice; conditions: 30 mg/kg intraperitoneal, night phase and day phase
Procedure: (§1) The 11 genes in the DG region of the mice were knocked down using shRNA virus. The mice were subject to a forced swim test (FST), and the immobility time of the mice was analyzed. The immobility time is an indicator that reflects the feeling of despair of the mice, and a longer immobility time indicates a more serious feeling of despair. The result is shown in panel C in FIG. 1.
The behaviors of Syt7 KO mice (i.e., Syt7-knockout mice) were then examined in the FST test.
Syt7 KO mice were first treated with the atypical antipsychotic olanzapine (OLZ) and observed for the dose dependence (administered with doses of 0.2 mg/kg, 0.5 mg/kg and 1.0 mg/kg) (using ANOVA statistical method). […] Without being limited by theory, this may be associated with an antidepressant effect of olanzapine in treating BD patients.
(§2) The effect of clinical BD treatment lithium on behavioral abnormalities in Syt7 KO mice was then tested.

[2] = test system: WT mice; test: forced swim test (FST), WT mice; conditions: 30 mg/kg intraperitoneal, night phase and day phase
Procedure: as §1, §2

[3] = test system: Syt7 KO mice; test: learned helplessness (LH) test, Syt7 KO mice; conditions: 30 mg/kg intraperitoneal, night phase and day phase, vs untreated control
Procedure: (§3) Considering that the FST/TS tests can not represent all the characterizations of human disease, a learned helplessness (LH) test and a sucrose preference test (SPT) were conducted. LH is associated with depression. In the LH test, the escape failure number of mice is an indicator for determining the depression of animal due to external pressure. A higher escape failure number indicates a more significant depression. SPT is associated with anhedonia. The proportion of sucrose preference of the mice can serve as an indicator for determining the anhedonia severity of the mice. A higher proportion of sweet preference indicates an enhancement in hedonic feeling.
(§4) Then, the LH/SPT/LDB behavioral paradigms were adopted for detecting the effect of high-dose olanzapine treatment (1.0 mg/kg) on abnormal behaviors of the Syt7 KO mice.
as §2

[4] = test system: WT mice; test: learned helplessness (LH) test, WT mice; conditions: 30 mg/kg intraperitoneal, night phase and day phase, vs untreated control
Procedure: as §3, §4, §2

[5] = test system: Syt7 KO mice; test: sucrose preference test (SPT), Syt7 KO mice; conditions: 30 mg/kg intraperitoneal, night phase and day phase, vs untreated control
Procedure: as §3, §4, §2

[6] = test system: WT mice; test: sucrose preference test (SPT), WT mice; conditions: 30 mg/kg intraperitoneal, night phase and day phase, vs untreated control
Procedure: as §3, §4, §2

[7] = test system: Syt7 KO mice; test: light-dark box (LDB) test, Syt7 KO mice; conditions: 30 mg/kg intraperitoneal, night phase and day phase
Procedure: (§5) Since BD patients often had clinical symptoms of anxiety, a light-dark box (LDB) test was conducted to observe anxiety-like behaviors in the Syt7 KO mice.
as §4, §2

[8] = test system: WT mice; test: light-dark box (LDB) test, WT mice; conditions: 30 mg/kg intraperitoneal
Procedure: as §5, §4, §2

## O=C([O-])[O-].[Li+].[Li+] [Li2CO3]
[1]
  immobility time in FST: no effect
[2]
  immobility time in FST: no effect
[3]
  escape numbers in LH test: increased escape numbers
[4]
  escape numbers in LH test: increased escape numbers
[5]
  sucrose preference (SPT): decreased sucrose preference
[6]
  sucrose preference (SPT): decreased sucrose preference
[7]
  time spent in the light compartment in the LDB test: reducing the time spent in the light compartment
[8]
  time spent in the light compartment in the LDB test: no effect on WT
